Key:
[1] = molecular target: T1, Human immunodeficiency virus type 1 integrase (Human immunodeficiency virus 1, UniProt Q7ZJM1, C130S); assay: Inhibition of HIV1 integrase C130S mutant 3' processing step
[2] = molecular target: Human immunodeficiency virus type 1 integrase (Human immunodeficiency virus 1, UniProt Q7ZJM1, C280S/F185K); assay: Inhibition of soluble HIV1 integrase F185K/C280S mutant strand transfer step
[3] = molecular target: T2, Human immunodeficiency virus type 1 integrase (Human immunodeficiency virus 1, UniProt Q7ZJM1); assay: Inhibition of wild type HIV1 integrase 3' processing step
T2 sequence (Q7ZJM1 whole entry): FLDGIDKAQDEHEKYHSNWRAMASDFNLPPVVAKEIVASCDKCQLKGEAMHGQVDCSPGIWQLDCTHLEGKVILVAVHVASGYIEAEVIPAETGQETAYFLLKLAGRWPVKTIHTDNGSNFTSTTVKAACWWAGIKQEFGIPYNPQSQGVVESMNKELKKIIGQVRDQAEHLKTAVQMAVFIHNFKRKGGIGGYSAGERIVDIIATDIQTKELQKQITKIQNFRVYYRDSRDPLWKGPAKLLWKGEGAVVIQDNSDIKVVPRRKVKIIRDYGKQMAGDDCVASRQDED

[4] = molecular target: T2, Human immunodeficiency virus type 1 integrase; assay: Inhibition of wild type HIV1 integrase strand transfer step
[5] = molecular target: Human immunodeficiency virus type 1 integrase (Human immunodeficiency virus 1, UniProt Q7ZJM1, C280S/F182K); assay: Inhibition of soluble HIV1 integrase F182K/ C280S mutant 3' processing step
[6] = molecular target: T3, Human immunodeficiency virus type 1 integrase (Human immunodeficiency virus 1, UniProt Q7ZJM1, C130A); assay: Inhibition of HIV1 integrase C130A mutant strand transfer step
T3 sequence (Q7ZJM1 entry or part of it C130A): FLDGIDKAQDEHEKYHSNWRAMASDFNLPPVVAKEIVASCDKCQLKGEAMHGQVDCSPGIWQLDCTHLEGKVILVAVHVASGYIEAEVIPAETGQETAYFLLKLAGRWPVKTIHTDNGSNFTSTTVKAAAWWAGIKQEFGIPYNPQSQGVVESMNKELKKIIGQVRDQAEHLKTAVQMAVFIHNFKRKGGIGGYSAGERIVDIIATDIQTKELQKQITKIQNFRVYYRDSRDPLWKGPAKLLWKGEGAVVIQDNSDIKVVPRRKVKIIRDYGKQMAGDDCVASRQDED

[7] = molecular target: T1, Human immunodeficiency virus type 1 integrase; assay: Inhibition of HIV1 integrase C130S mutant strand transfer step
[8] = molecular target: T3, Human immunodeficiency virus type 1 integrase; assay: Inhibition of mutant HIV1 integrase C130A mutant 3' processing step

Chain of Human immunodeficiency virus type 1 integrase (Human immunodeficiency virus 1, UniProt Q7ZJM1, C280S/F185K) (Q7ZJM1 entry or part of it C280S/F185K): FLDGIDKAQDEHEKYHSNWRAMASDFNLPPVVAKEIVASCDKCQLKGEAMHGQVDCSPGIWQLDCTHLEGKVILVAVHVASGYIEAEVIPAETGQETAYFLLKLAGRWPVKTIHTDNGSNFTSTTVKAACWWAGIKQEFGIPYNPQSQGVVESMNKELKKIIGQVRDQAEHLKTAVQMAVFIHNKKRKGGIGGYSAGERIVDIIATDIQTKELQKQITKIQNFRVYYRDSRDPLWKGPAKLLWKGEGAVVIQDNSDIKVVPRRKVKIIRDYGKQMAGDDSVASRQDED
T1 sequence (Q7ZJM1 entry or part of it C130S): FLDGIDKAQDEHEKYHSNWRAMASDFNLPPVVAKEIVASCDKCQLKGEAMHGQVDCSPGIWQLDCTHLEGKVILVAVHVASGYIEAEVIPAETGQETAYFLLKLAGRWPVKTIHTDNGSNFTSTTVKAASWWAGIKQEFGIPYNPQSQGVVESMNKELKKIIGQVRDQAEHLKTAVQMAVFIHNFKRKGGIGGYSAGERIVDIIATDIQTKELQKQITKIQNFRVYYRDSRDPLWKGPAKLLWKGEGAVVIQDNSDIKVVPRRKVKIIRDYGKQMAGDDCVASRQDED

SMILES | IC50 [1] [µM] | IC50 [2] [µM] | IC50 [3] [µM] | IC50 [4] [µM] | IC50 [5] [µM] | IC50 [6] [µM] | IC50 [7] [µM] | IC50 [8] [µM]
CC[C@H](C)[C@H](NC(=O)[C@H](CO)NC(=O)[C@H](CCC(=O)O)NC(=O)[C@@H](NC(=O)[C@@H](NC(=O)[C@@H](NC(=O)[C@H](CCCCN)NC(=O)[C@H](CCC(N)=O)NC(=O)[C@@H](NC(=O)[C@H](C)NC(=O)[C@H](CCC(=O)O)NC(=O)[C@@H](NC(=O)[C@H](CC(C)C)NC(=O)[C@H](CCC(N)=O)NC(=O)[C@@H](N)CCCCN)[C@@H](C)O)C(C)C)[C@@H](C)CC)[C@@H](C)O)[C@@H](C)O)C(=O)N[C@H](C(=O)N[C@H](C(=O)N[C@@H](Cc1c[nH]c2ccccc12)C(=O)NCC(=O)N[C@@H](CCCCN)C(=O)O)[C@@H](C)CC)C(C)C | 29 | 31 | 7 | 4 | 51 | 10 | 2 | 15
CC[C@H](C)[C@H](NC(=O)[C@H](CC(C)C)NC(=O)[C@H](CCC(N)=O)NC(=O)[C@H](CCC(=O)O)NC(=O)[C@@H](NC(=O)[C@@H](NC(=O)[C@H](CCC(N)=O)NC(=O)[C@H](CC(N)=O)NC(=O)[C@@H](NC(=O)[C@H](CC(C)C)NC(=O)[C@@H](N)CCC(=O)O)C(C)C)[C@@H](C)CC)[C@@H](C)CC)C(=O)N[C@@H](CCCCN)C(=O)N[C@@H](CCCCN)C(=O)N[C@@H](CCC(=O)O)C(=O)N[C@@H](CCCCN)C(=O)N[C@H](C(=O)N[C@@H](Cc1ccc(O)cc1)C(=O)N[C@@H](CC(C)C)C(=O)N[C@@H](C)C(=O)N[C@@H](Cc1c[nH]c2ccccc12)C(=O)O)C(C)C | 136 | 83 | 15 | 14 | 113 | 15 | 7 | 45
CC[C@H](C)[C@H](NC(=O)[C@H](Cc1c[nH]c2ccccc12)NC(=O)[C@@H](NC(=O)[C@H](C)NC(=O)[C@H](CCC(N)=O)NC(=O)[C@H](Cc1c[nH]c2ccccc12)NC(=O)[C@H](Cc1ccc(O)cc1)NC(=O)[C@H](CCC(=O)O)NC(=O)[C@@H](NC(=O)[C@H](Cc1c[nH]c2ccccc12)NC(=O)[C@H](Cc1c[nH]c2ccccc12)NC(=O)[C@@H](NC(=O)[C@H](CCC(=O)O)NC(=O)[C@H](Cc1c[nH]c2ccccc12)NC(=O)[C@@H](NC(=O)[C@@H](N)CCC(=O)O)[C@@H](C)O)[C@@H](C)O)[C@@H](C)O)[C@@H](C)O)C(=O)N1CCC[C@H]1C(=O)N[C@@H](CCC(=O)O)C(=O)N[C@@H](Cc1c[nH]c2ccccc12)C(=O)N[C@@H](CCC(=O)O)C(=O)O | 126 | 9 | 6 | 2 | 13 | 5 | 27 | 25
CC[C@H](C)C(NC(=O)[C@H](CCC(=O)O)NC(=O)[C@H](CC(C)C)NC(=O)[C@H](CC(=O)O)NC(=O)[C@H](CO)NC(=O)CNC(=O)[C@@H](NC(=O)[C@H](Cc1ccc(O)cc1)NC(=O)[C@H](CC(C)C)NC(=O)[C@H](CC(=O)O)NC(=O)[C@H](CC(=O)O)NC(=O)[C@H](CCSC)NC(=O)[C@H](Cc1ccc(O)cc1)NC(=O)[C@H](CCC(N)=O)NC(=O)[C@H](Cc1ccc(O)cc1)NC(=O)[C@@H](NC(=O)[C@@H](NC(=O)[C@@H](NC(=O)[C@H](CC(=O)O)NC(=O)[C@@H]1CCCN1)[C@@H](C)CC)C(C)C)[C@@H](C)CC)C(C)C)C(=O)O (stereo not given in full) | 41 | 23 | 6 | 10 | 28 | 5 | 2 | 20
CC[C@H](C)[C@H](NC(=O)CNC(=O)[C@H](CC(C)C)NC(=O)[C@H](C)NC(=O)[C@H](Cc1ccc(O)cc1)NC(=O)[C@H](CCC(N)=O)NC(=O)[C@H](CO)NC(=O)[C@H](CC(=O)O)NC(=O)[C@@H](NC(=O)[C@@H](NC(=O)[C@@H](NC(=O)[C@H](CC(N)=O)NC(=O)[C@@H](NC(=O)[C@H](CCC(=O)O)NC(=O)[C@H](CC(C)C)NC(=O)CNC(=O)[C@H](CO)NC(=O)[C@H](CC(=O)O)NC(=O)[C@H](CCC(N)=O)NC(=O)[C@@H](N)CC(C)C)C(C)C)[C@@H](C)CC)C(C)C)[C@@H](C)O)C(=O)O | 18 | 36 | 11 | 2 | > 167 | 20 | 4 | > 167
